The nature of assay [1]: Cytotoxicity against human HepG2 cells after 72 hrs by sulforhodamine-B assay. It is filed as functional, cell-based. The following applies: HepG2, 72 h.
A short description of assay [2]: Cytotoxicity against human Calu1 cells by sulforhodamine-B assay. It is filed as functional, cell-based. The following applies: Calu-1. On the technique in general: In SRB staining, fixed cells bind dye roughly in proportion to their protein.
Assay [3] in a line: Cytotoxicity against human NCI-H157 cells by sulforhodamine-B assay. It is filed as functional, cell-based.
In assay [4] the target is cGMP-inhibited 3',5'-cyclic phosphodiesterase 3A (Homo sapiens, UniProt Q14432). Nature of the assay: Inhibition of human PDE3A using fluorescein-labelled cAMP as substrate measured after 60 mins by IMAP TR-FRET assay. (Time-resolved FRET reads energy transfer from a long-lived donor to a nearby acceptor.)
cGMP-inhibited 3',5'-cyclic phosphodiesterase 3A, sequence (Q14432 whole entry): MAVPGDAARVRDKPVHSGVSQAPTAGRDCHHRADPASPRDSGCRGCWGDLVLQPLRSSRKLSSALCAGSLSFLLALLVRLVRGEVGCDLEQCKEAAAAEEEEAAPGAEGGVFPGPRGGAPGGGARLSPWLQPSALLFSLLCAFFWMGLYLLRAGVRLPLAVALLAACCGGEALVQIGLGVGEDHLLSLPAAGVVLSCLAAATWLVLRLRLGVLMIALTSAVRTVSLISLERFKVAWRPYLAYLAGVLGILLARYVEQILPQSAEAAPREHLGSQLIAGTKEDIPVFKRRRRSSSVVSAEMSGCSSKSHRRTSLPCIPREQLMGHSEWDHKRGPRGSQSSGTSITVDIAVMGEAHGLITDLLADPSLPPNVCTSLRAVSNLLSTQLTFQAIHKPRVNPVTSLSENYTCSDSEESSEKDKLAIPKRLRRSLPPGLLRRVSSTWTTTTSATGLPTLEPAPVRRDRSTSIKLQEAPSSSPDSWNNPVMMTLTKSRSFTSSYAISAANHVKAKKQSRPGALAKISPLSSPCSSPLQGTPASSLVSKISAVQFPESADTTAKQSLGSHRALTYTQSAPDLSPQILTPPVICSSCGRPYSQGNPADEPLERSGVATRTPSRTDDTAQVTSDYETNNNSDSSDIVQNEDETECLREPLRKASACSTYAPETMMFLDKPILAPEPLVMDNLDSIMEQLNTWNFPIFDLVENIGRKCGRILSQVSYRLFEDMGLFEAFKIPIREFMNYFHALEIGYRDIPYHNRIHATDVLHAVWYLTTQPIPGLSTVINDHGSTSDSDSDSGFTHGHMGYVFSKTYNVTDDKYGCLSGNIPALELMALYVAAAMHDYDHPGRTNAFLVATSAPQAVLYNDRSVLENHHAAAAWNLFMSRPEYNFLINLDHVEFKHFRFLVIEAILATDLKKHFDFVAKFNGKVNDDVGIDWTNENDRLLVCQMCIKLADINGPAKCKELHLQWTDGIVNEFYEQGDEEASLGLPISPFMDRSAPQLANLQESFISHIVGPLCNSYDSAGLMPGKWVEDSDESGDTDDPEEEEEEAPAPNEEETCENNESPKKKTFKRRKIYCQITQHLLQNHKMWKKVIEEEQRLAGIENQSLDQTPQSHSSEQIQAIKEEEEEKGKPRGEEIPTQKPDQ
Assay [5] can be described thus: Cytotoxicity against human HeLa cells measured after 24 hrs by MTT assay. It is filed as functional, cell-based. For orientation: Tetrazolium assays rely on reduction of a dye to a coloured formazan, in cell work by metabolically active cells.
A short description of assay [6]: Cytotoxicity against human MCF7 cells measured after 24 hrs by MTT assay. It is filed as functional, cell-based. The following applies: MCF7, 24 h.
A short description of assay [7]: Cytotoxicity against human HeLa cells measured after 3 days by MTT assay. It is filed as functional. As to conditions: 72 h.
Assay [8] in a line: Cytotoxicity against human A549 cells measured after 3 days by MTT assay. It is filed as functional. The following applies: A549, 72 h.
Assay [9] can be described thus: Cytotoxicity against human MCF7 cells measured after 3 days by MTT assay. It is filed as functional. The following applies: MCF7, 72 h.
A short description of assay [10]: Cytotoxicity against human MCF7 cells by MTT assay. It is filed as functional, cell-based.
A short description of assay [11]: Cytotoxicity against human MDA-MB-231 cells by MTT assay. It is filed as functional, cell-based.
The nature of assay [12]: Cytotoxicity against human PC3 cells by MTT assay. It is filed as functional, cell-based. The following applies: PC-3.
The nature of assay [13]: Cytotoxicity against human DU145 cells by MTT assay. It is filed as functional, cell-based. The following applies: DU-145.
Assay [14] is described as follows: Cytotoxicity against human A549 cells by sulforhodamine-B assay. It is filed as functional, cell-based.

Values after ≈ are worked out from the molar mass of the structure shown.

A word on the IC50: it is the concentration at which inhibition is half-maximal. High values mean lower potency, low ones higher potency. Regarding `COC(=O)c1ccccc1-n1c(N)c(C(N)=O)c(-c2ccc(N(C)C)cc2)cc1=O`, the IC50 in assay [1] was 1.34 µM.

In the case of `Cc1onc(-c2ccc([N+](=O)[O-])cc2)c1C(=O)/C=C/c1ccccc1Cl`, the 50% inhibitory concentration (IC50) in assay [2] was 2.07 µM; in assay [3] it was 1.35 µM.

Regarding `CCSc1ncc(-c2cc(-c3ccc(Br)cc3)[nH]c(=N)c2C#N)n1Cc1ccccc1`, the IC50 in assay [4] is 0.00376 µM; in [5], 34.3 µM; in assay [6], 50.2 µM.

Usually CC50 stands for the concentration at which the toxic effect on the cells reaches its halfway point. The low end stands for harm at low concentration, the high end for better tolerance by the cells. For the compound `CC(C)NC(=O)c1cccc2c(Cc3ccc(C(=O)O)cc3)c3ccccc3nc12`, it took 47.5 µg/mL (≈ 119 µM) to reach half-maximal cytotoxicity in assay [7] (CC50).

With `Cc1ccc2nc3ccccc3c(Nc3cccc(Cl)c3)c2c1`, the cytotoxic concentration (CC50) in assay [8] was found to be 188 µg/mL (≈ 588 µM); in [9], 212 µg/mL (≈ 667 µM).

As for `COC(=O)c1ccccc1-n1c(N)c(C#N)c(-c2ccc(N(C)C)cc2)cc1=O`, in assay [1], the concentration for half-maximal inhibition (IC50) amounted to 0.02 µM.

For the compound `Clc1cccc(Cl)c1C1=NO[C@@]2(CCCCO2)[C@H]1Br`, the IC50 in [10], in [11], in assay [12] and in assay [13] was 43 to 56 µM in each case.

Turning to `Cc1onc(-c2ccc([N+](=O)[O-])cc2)c1C(=O)/C=C/c1ccccc1Br`, the IC50 in assay [14] was determined as 11.1 µM; in assay [3], 7.27 µM.

In the case of `CC(C)NC(=O)c1cccc2c(Cc3cccc(Cl)c3)c3ccccc3nc12`, the CC50 in assay [8] turned out to be 100 µg/mL (≈ 257 µM).

For the compound `Clc1ccc(C2=NO[C@@]3(CCCCO3)[C@H]2Br)cc1`, the IC50 in assay [10], in assay [11], in [12] and in assay [13] was 43 to 56 µM each time.
